As usually defined, the Ki is a measure of affinity in units of concentration, obtained from inhibition or displacement. Low values mean a stronger hold on the target, high ones a looser hold on the target.

A short description of this assay: Inhibition constant(Ki) for inhibition of PPIase activity of Legionella pneumophilia FK506 binding protein 25 (Conc=40 nM) of FKBPs family.

Regarding `C[C@@H]1C[C@@H]([C@H](O)CC2CC(=O)NC(=O)C2)C(=O)[C@@H](C)C1` [Cycloheximid], the Ki was 124 µM.

Values taken from BindingDB's records for doi:10.1021/jm991038t (Max-Planck Research Unit, 1999).
